For 11 compounds, TGI and GI50 results are on record in PubChem BioAssay (NCI).

Each structure is given as a SMILES string.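 96-well plates; 48 h exposure; 5 concentrations. Endpoints by linear interpolation between flanking doses. Not reached: highest tested concentration assigned. At the GI50, growth is halved. At the TGI there is no net growth.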

Among the test systems are HT29 colon; SK-OV-3 ovarian; TK-10 renal; SF-539 CNS; SK-MEL-28 melanoma; IGROV1 ovarian; HOP-62 NSCLC; HL-60(TB) leukemia; HCT-15 colon; CAKI-1 renal.
What all share (experiment): NCI-60 cell line screen, 48 h

As for `Nc1nc(N)c(-c2ccccc2)c(C(=O)Nc2nccs2)n1`, the TGI in the test on HT29 colon, with SK-OV-3 ovarian, in the test with TK-10 renal, in the test on SF-539 CNS, in the test with SK-MEL-28 melanoma and in the test on IGROV1 ovarian was more than 100 µM each time. Also, the TGI in the test on HOP-62 NSCLC, in the test on HL-60(TB) leukemia, in the test with HCT-15 colon and in the test with CAKI-1 renal was more than 100 µM in each case.
Consider `O=[N+]([O-])c1cccc(C2=NOC3CCCC23)c1` (centres undefined), for which the TGI with HT29 colon, with SK-OV-3 ovarian, in the test on TK-10 renal, with SF-539 CNS, in the test with SK-MEL-28 melanoma and in the test on IGROV1 ovarian was more than 100 µM throughout. The TGI with HOP-62 NSCLC, in the test with HL-60(TB) leukemia, with HCT-15 colon and with CAKI-1 renal was more than 100 µM throughout.
As for `CC(C)c1nc(Cl)c(Cl)c(Cl)n1`, the TGI in the test with HT29 colon came to 17.9 µM; with SK-OV-3 ovarian, 37.9 µM; with TK-10 renal, 28.8 µM; in the test with SF-539 CNS, 25.2 µM; in the test on SK-MEL-28 melanoma it was 40.5 µM; with IGROV1 ovarian, 19.5 µM. The TGI in the test on HOP-62 NSCLC was 25.9 µM; in the test on HL-60(TB) leukemia it was 5.4 µM; in the test with HCT-15 colon, 17.7 µM; with CAKI-1 renal it was 11.8 µM.
Consider `CC(C)(CCc1nc2ccccc2[nH]1)C(=O)O`, for which the TGI in the test with HT29 colon, in the test with SK-OV-3 ovarian, with TK-10 renal, in the test with SF-539 CNS, with SK-MEL-28 melanoma and with IGROV1 ovarian was more than 100 µM throughout. Also, the TGI with HOP-62 NSCLC, in the test on HL-60(TB) leukemia, with HCT-15 colon and in the test on CAKI-1 renal was more than 100 µM each time.
With `COc1ccc(C[C@H](N)C(=O)N[C@@H]2[C@@H](CO)OC(n3cnc4c(N(C)C)ncnc43)[C@@H]2O)cc1` (some centres undefined), the TGI with HT29 colon was 1.38 µM; with SK-OV-3 ovarian, 1.5 µM; in the test on TK-10 renal it was 1.38 µM; in the test on SF-539 CNS, 1.95 µM; with SK-MEL-28 melanoma, 1.13 µM; in the test on IGROV1 ovarian, 1.73 µM. Also, the TGI in the test on HOP-62 NSCLC was determined as 1.1 µM; with HL-60(TB) leukemia it was 1.7 µM; in the test with HCT-15 colon, 29.9 µM; with CAKI-1 renal, 16.6 µM. Besides, the GI50 in the test on SF-539 CNS was 0.435 µM; in the test on SK-MEL-28 melanoma, 0.479 µM; in the test with IGROV1 ovarian, 0.539 µM; with HL-60(TB) leukemia, 0.454 µM; with HCT-15 colon, 6.63 µM; in the test with CAKI-1 renal, 4.44 µM.
Take `CN(C)C(=O)c1cc2cnc(Nc3ccc(N4CCNCC4)cn3)nc2n1C1CCCC1`: the GI50 in the test on HT29 colon is 3.28 µM; with SK-OV-3 ovarian it was 34.8 µM; in the test on TK-10 renal it was 4.37 µM; in the test on SF-539 CNS, 15.7 µM; in the test with SK-MEL-28 melanoma, 16.1 µM; in the test with IGROV1 ovarian it was 19.5 µM. For the same compound, the GI50 is 2.09 µM in the test with HOP-62 NSCLC, 1.74 µM in the test with HL-60(TB) leukemia, 16.6 µM with HCT-15 colon and 20 µM with CAKI-1 renal. Further, the TGI in the test with HT29 colon is more than 100 µM; with SK-OV-3 ovarian, more than 100 µM; with TK-10 renal, more than 100 µM; in the test with SF-539 CNS, 30.8 µM; in the test on SK-MEL-28 melanoma, 48.3 µM; in the test with IGROV1 ovarian, more than 100 µM. The TGI is 58.5 µM in the test with HOP-62 NSCLC, 28.1 µM in the test on HL-60(TB) leukemia, more than 100 µM in the test on HCT-15 colon and more than 100 µM in the test on CAKI-1 renal.
Regarding `COC(=O)N/N=C(\c1nc2ccc(Cl)cc2[nH]c1=O)C(O)c1ccc([N+](=O)[O-])cc1` (centres undefined), the TGI in the test on HT29 colon, with SK-OV-3 ovarian, with SF-539 CNS, with SK-MEL-28 melanoma, in the test on IGROV1 ovarian and in the test with HOP-62 NSCLC was more than 100 µM in each case. For the same compound, the TGI in the test on HL-60(TB) leukemia, with HCT-15 colon and in the test on CAKI-1 renal was more than 100 µM in each case.
For `COc1cccc(OC)c1/C=N\N1C(=O)c2ccccc2C1=O`, the TGI is more than 100 µM in the test with HT29 colon; more than 100 µM in the test on TK-10 renal; 52.4 µM with SF-539 CNS; more than 100 µM with SK-MEL-28 melanoma; more than 100 µM with IGROV1 ovarian; more than 100 µM in the test with HOP-62 NSCLC. Further, the TGI is 79.8 µM in the test on HL-60(TB) leukemia, more than 100 µM in the test on HCT-15 colon and more than 100 µM in the test on CAKI-1 renal.
`Cc1[nH]n(C(=O)c2ccc(Cl)cc2)c(=O)c1/C=C1\C(O)=CC(=O)c2ccccc21`: the TGI in the test on HT29 colon, with SK-OV-3 ovarian, with TK-10 renal, with SF-539 CNS, with SK-MEL-28 melanoma and in the test with IGROV1 ovarian was more than 100 µM throughout. The TGI in the test on HOP-62 NSCLC, with HL-60(TB) leukemia and in the test with CAKI-1 renal was more than 100 µM throughout.
Consider `COc1cc(-c2nn(-c3cccc(NC(=O)c4cccc(C(F)(F)F)c4)c3)cc2-c2ccncc2)ccc1Cl`, for which the GI50 with HT29 colon was 1.39 µM; in the test on SK-OV-3 ovarian it was 2.29 µM; with TK-10 renal it was 3.24 µM; in the test on SF-539 CNS, 0.895 µM; in the test with SK-MEL-28 melanoma, 2.49 µM; in the test on IGROV1 ovarian, 1.83 µM. Further, the GI50 in the test on HL-60(TB) leukemia was 2.02 µM; in the test with HCT-15 colon, 1.55 µM; in the test with CAKI-1 renal it was 2.01 µM. The TGI was 20.1 µM in the test on HT29 colon; more than 50 µM in the test on SK-OV-3 ovarian; more than 50 µM in the test on TK-10 renal; 2.3 µM with SF-539 CNS; more than 50 µM with SK-MEL-28 melanoma; more than 50 µM in the test on IGROV1 ovarian. Also, the TGI in the test with HL-60(TB) leukemia, in the test on HCT-15 colon and in the test on CAKI-1 renal was more than 50 µM each time.
On to `O=C(c1ccccc1)c1ccc(N2C(=O)C3C4c5ccccc5C(/C=C/C(=O)c5ccccn5)(c5ccccc54)C3C2=O)cc1` (centres undefined), for which the GI50 in the test on HT29 colon was 2.92 µM; in the test with SK-OV-3 ovarian, more than 81.7 µM; in the test on TK-10 renal, 6.68 µM; in the test on SF-539 CNS it was 2.07 µM; with IGROV1 ovarian it was 1.86 µM; with HOP-62 NSCLC it was 3.43 µM. Further, the GI50 in the test with HL-60(TB) leukemia was 1.9 µM; with HCT-15 colon, 1.69 µM; in the test with CAKI-1 renal, 8.82 µM. Besides, the TGI in the test with HT29 colon was more than 100 µM; in the test with SK-OV-3 ovarian it was more than 100 µM; in the test on TK-10 renal, more than 100 µM; in the test on SF-539 CNS it was 4.91 µM; in the test with IGROV1 ovarian, 4.48 µM; in the test on HOP-62 NSCLC it was more than 100 µM. In addition, the TGI in the test with HL-60(TB) leukemia was 28.1 µM; in the test on HCT-15 colon it was 4.4 µM; in the test on CAKI-1 renal, more than 100 µM.
